Laboratory results: patent US20060239958A1, “Biodegradable and pressure-sensitive material for medical use” (priority 2003, published 2006)

Test system: L929 cells
Test: Cytotoxicity test using L929 cells
Assay type: cell-based
Description: FIG. 1 is a graph showing the result of a cytotoxicity test on three compounds related to the synthesis of a citric acid derivative (CAD).
A cytotoxicity test was carried out in the following manner. As one example of the low-molecular-weight derivative serving as the hardening component, a biological low-molecular-weight derivative (CAD) was synthesized by modifying three carboxyl groups of a citric acid with N-hydroxysuccinimide (HOSu), and a cytotoxicity test was performed using L929 cells and the synthesized CAD. The number of cells in a sample added with no CAD was defined as 100%.

With `O=C(O)CC(O)(CC(=O)O)C(=O)O` [citric acid] the “cytotoxicity (number of cells; sample added with no CAD defined as 100%)” value was “extremely low toxicity”.
In the case of `O=C(CC(O)(CC(=O)ON1C(=O)CCC1=O)C(=O)ON1C(=O)CCC1=O)ON1C(=O)CCC1=O` [CAD], the “cytotoxicity (number of cells; sample added with no CAD defined as 100%)” value is reported as “extremely low toxicity”.
With `O=C1CCC(=O)N1O` [HOSu, N-hydroxysuccinimide] the “cytotoxicity (number of cells; sample added with no CAD defined as 100%)” value was “extremely low toxicity”.
